From patent publication EP4803511A1, “SMALL MOLECULE COMPOUND HAVING SULFONIC ACID OR SULFINIC ACID LACTONE STRUCTURE, COMPOSITION AND USE THEREOF” (Hangzhou Phecdamed Co., Ltd., priority 2023, dated 2025) come the findings set out here.

For series [1], the system named is ampk. The series can be described thus: Zebrafish oxidative aging model (menadione), ampk gene expression by RT-qPCR. It counts as in vivo. Conditions: I-8 at 2.5 µg/mL, 22 hrs, 4 µM menadione; compared to the modeling group, statistical significance. The protocol:
(§1) Experimental animal: Healthy wild-type AB strain zebrafish at 48 hpf (hours post-fertilization)
(§2) Healthy AB strain zebrafish were taken as experimental animal. A zebrafish oxidative aging model was constructed using chemical mutagenesis with 4 µM menadione as the modeling drug. Fucoxanthin was used as a positive control compound. After treating the zebrafish oxidative aging model with different concentrations of I-8 for 22 hrs, changes in the reactive oxygen species (ROS) content, β-galactosidase activity, and the expression of three antioxidant and anti-aging related genes (Cu/Zn-sod, Mn-sod, and ampk) were respectively detected and statistically analyzed.
(§3) During the experiment, the modeling drug, positive compound, and I-8 were dispersed together in the culture water of zebrafish. […] Cell ROX™ Deep Red fluorescent probes and β-galactosidase staining kits were used to specifically label ROS and β-galactosidase in the fish, respectively, and the staining intensity was quantified using Image-Pro Plus software. After extracting RNA from the whole fish, the expression changes of three genes (Cu/Zn-sod, Mn-sod, and ampk) in the fish were detected at the mRNA level using Quantitative Real-time PCR (RT-qPCR). The data were statistically analyzed using GraphPad software.
A general note: Real-time PCR tracks product formation cycle by cycle.

For series [2], the system named is reactive oxygen species (ROS). Nature of the series: Zebrafish oxidative aging model (menadione), ROS content. Type of series: in vivo. To be noted: I-8 at 22.2 µg/mL, 22 hrs, 4 µM menadione; compared with the modeling group, statistical significance. The protocol:
as §1, §2, §3

Series [3] relates to IL-1β. The series can be described thus: IL-1β gene expression in HaCaT after UVB radiation (q-PCR). It counts as cell-based, human. Conditions: UVB 80 mJ/cm^2, 24 hrs, dose-dependent. The source says: (§4) In the following Test Examples 6-1 and 6-2, using immortalized keratinocytes (HaCaT) and UVB to establish a model, after the compound to be test was applied to HaCaT, the expression levels of TNF-α, IL-8, IL-1β and EP2 were detected; using immortalized keratinocytes (HaCaT) and capsaicin to establish a model, after the compound to be test was applied to HaCaT, the expression level of TRPV1 was detected, so as to evaluate the soothing effect of the test substance from multiple dimensions.
(§5) • 1) Cell inoculation: HaCaT cells were inoculated into a 6-well plate at 6×10^5/well, cultured in an incubator (37°C, 5% CO2) for 12 hrs, and a normal control group (0 mJ/cm^2 + vehicle control), a model control group (80 mJ/cm^2 + vehicle control), a low concentration group (80 mJ/cm^2 + low concentration compound), a medium concentration group (80 mJ/cm^2 + medium concentration compound), and a high concentration group (80 mJ/cm^2 + high concentration compounds) were respectively provided. • 2) UVB modeling: The HaCaT cells were washed 3 times with D'Hanks before UVB radiation, 1 mL of D'Hanks was added into the wells, to make the cells to be immersed, and the control group was coated with tinfoil and placed in the dark. […]

Series [4] can be described thus: Permeability into skin using a Franz diffusion cell. Type of series: in vitro ADME, Bama miniature pig. Conditions: for Concentration of the compound to be test in the skin, Mean / Concentration of the compound to be test in the skin, Skin-1 / Concentration of the compound to be test in the skin, Skin-2 / Concentration of the compound to be test in the skin, Skin-3: 0.1 mg/mL solution, 32 °C. The protocol:
Experimental materials: skin from the back of a one-month-old Bama miniature pig, 0.8-1.0 mm thick; 0.1 mg/mL solution of the compound to be test, dissolvent: 50 mM Sodium Phosphate Buffer (PB) buffer solution containing 20% ethanol.
Experimental procedure: • 1. 400 uL solution of the compound to be test was pipetted into the feed cell, repeated three times. • 2. About 7600 uL of 50 mM PB buffer solution was added to the corresponding receiving cell. • 3. The compound to be test was permeated at 32 °C for 2 hrs and 6 hrs. • 4. At 2 hrs and 6 hrs, the skin was washed with 50 mM PB buffer solution containing 20% ethanol, the skin from the permeation area was removed and homogenized, and acetonitrile solution containing internal standard was added. • 5. Centrifugation was performed, 100 µL of the supernatant was taken and added into 100 µL of purified water, after mixing uniformly, quantitative analysis was performed by LC-MS/MS.

Series [5] deals with Mn-sod. Nature of the series: Zebrafish oxidative aging model (menadione), Mn-sod gene expression by RT-qPCR. Type of series: in vivo. Conditions: I-8 at 2.5, 7.5, and 22.2 µg/mL, 22 hrs, 4 µM menadione; compared to the modeling group, statistical significance. Here is the method: as §1, §2, §3
Series [6] relates to COL4A1. The series can be described thus: Collagen IV gene expression in HaCaT human immortalized keratinocytes. It counts as cell-based. Conditions: 24 hrs, dose-dependent. The source says:
(§6) Skin fragility is partly attributed to changes in hemidesmosomes and the expression downregulation of various collagen proteins (Collagen I, III, IV, VII) or laminins (such as LN-5) at the dermal-epidermal junction. LN-5 has been proven to be a component of anchoring fibers in the basement membrane of the skin, cornea, conjunctiva, and other tissues. LN-5 participates in cell-cell interactions through the mediation of integrins and proteoglycans, thereby playing a crucial role in cell adhesion, growth, migration, and differentiation. The appearance of wrinkles is closely related to the normal synthesis and expression of collagen and laminins. Therefore, the increase of the above collagen content and LN-5 can achieve a certain role in resisting wrinkles, and plays an important role in the aging process of the skin. Therefore, the anti-wrinkle effect of the compound to be tested was evaluated by detecting the level of Collage I protein of […] by ELISA, and detecting the transcription levels of epidermal cells (keratinocytes) III, IV, VII and LN -5 by Real-Time PCR. The following Test Examples 8-1 and 8-2 evaluated the anti-wrinkle efficacy of compounds using HaCaT human immortalized keratinocytes and HSF human skin fibroblasts. […]

Series [7] relates to LAMA5. Nature of the series: LN-5 gene expression in HaCaT human immortalized keratinocytes. It counts as cell-based. Conditions: 24 hrs, dose-dependent.
Description: as §6

Series [8] deals with EP2. The series can be described thus: EP2 gene expression in HaCaT after UVB radiation (q-PCR). It counts as cell-based, human. Conditions: UVB 80 mJ/cm^2, 24 hrs, dose-dependent.
Description: as §4, §5

As to `O=S1(=O)Oc2cc(O)ccc2-c2ccc(O)cc21` [Compound I-8], the “expression of the ampk gene” value in series [1] is on record as “upregulated”. Besides, the ROS content entry in series [2] is listed as “downregulated”. The “expression level of IL-1β” value in series [3] is “downregulating”. In addition, in series [4] (Time 2 h), the “Concentration of the compound to be test in the skin, Mean” value is recorded as 7167 ng/g; the “Concentration of the compound to be test in the skin, Skin-1” value stood at 7450 ng/g; the “Concentration of the compound to be test in the skin, Skin-2” value is recorded as 6600 ng/g; the “Concentration of the compound to be test in the skin, Skin-3” value amounted to 7450 ng/g. Moreover, in series [4] (Time 6 h), the “Concentration of the compound to be test in the skin, Mean” value is reported as 11417 ng/g; the “Concentration of the compound to be test in the skin, Skin-1” value came to 13650 ng/g; the “Concentration of the compound to be test in the skin, Skin-2” value turned out to be 10450 ng/g; the “Concentration of the compound to be test in the skin, Skin-3” value came out at 10150 ng/g. This compound also displayed a permeation amount in series [4] (within 6 hours) of 10 µg/g. For the same compound, in series [5], the “expression of Mn-sod gene” value was “upregulated”. In series [6], the COL4A1 gene expression result was “upregulate”. The LAMA5 gene expression entry in series [7] was “upregulate”. Also, the “expression level of EP2” value in series [8] is on record as “downregulating”.
